Source: PMC6798786 (Brain Communications, 2019)
Like-named read-outs stand apart in the source and are kept apart here.

Legend:
[1] = test system: scn1lab mutant zebrafish; assay: locomotion (mean swim velocity) seizure-like behaviour assay in scn1lab mutant zebrafish larvae; assay type: in vivo, Danio rerio; settings: for change in vivo at 100 µM / change in vivo at 250 µM: Danio rerio; for effect on seizure-like swim behaviour, initial library screen: 100 µM or 250 µM, UCSF-synthesized compound; for effect on seizure-like swim behaviour, retest of independently synthesized compound: 10, 50, 100 and 250 µM, 30 and 90 min exposure
Procedure: (§1) For locomotion studies, zebrafish larvae (5 days post-fertilization) were placed into a single well of a clear flat-bottomed 96-well microplate containing embryo media. Sex determination is not possible at this stage of development. All drug screening experiments were conducted in an unbiased manner by investigators blinded to the test compounds and all files coded for post hoc analysis. The 96-well plate containing larvae was then placed inside a DanioVision box where they were allowed to acclimate (20 min; room temperature). EthoVision XT software (DanioVision, Noldus Information Technology) was used to obtain locomotion plots (10 min in duration). Seizure scoring was performed, as described ([Baraban et al., 2005]). All locomotion plots were analysed for distance travelled (in millimetres) and mean velocity (in millimetres per second). After 90 min of drug exposure larvae were examined for toxic side-effects. Compounds that decreased or stopped the larva heartbeat, or reduced or eliminated the escape response when touched, were considered toxic.
For behaviour analysis, the threshold for a change in mean swim velocity ≥40% is considered significant (>1.5× SD of 250 control treated scn1lab). Unless otherwise indicated, all data in this manuscript are presented as the mean ± standard error of the mean. […] Statistically significant differences are indicated with asterisks (*P < 0.05; **P < 0.01; ***P < 0.001). […]

[2] = test system: scn1lab mutant zebrafish larvae; assay: toxicity check of larvae after 90 min drug exposure (heartbeat, escape response); assay type: in vivo, Danio rerio; settings: 90 min exposure; for toxicity in initial analogue screening: 100 µM or 250 µM
Procedure: as §1, with “Seizure scoring was performed, as described ([Baraban et al., 2005]).” left out

[3] = target: human 5-HT2BR (Homo sapiens, UniProt P41595); assay: radioligand binding (NIMH PDSP); settings: read-out: Ki 5-HT2BR
Chain of human 5-HT2BR (P41595 whole entry): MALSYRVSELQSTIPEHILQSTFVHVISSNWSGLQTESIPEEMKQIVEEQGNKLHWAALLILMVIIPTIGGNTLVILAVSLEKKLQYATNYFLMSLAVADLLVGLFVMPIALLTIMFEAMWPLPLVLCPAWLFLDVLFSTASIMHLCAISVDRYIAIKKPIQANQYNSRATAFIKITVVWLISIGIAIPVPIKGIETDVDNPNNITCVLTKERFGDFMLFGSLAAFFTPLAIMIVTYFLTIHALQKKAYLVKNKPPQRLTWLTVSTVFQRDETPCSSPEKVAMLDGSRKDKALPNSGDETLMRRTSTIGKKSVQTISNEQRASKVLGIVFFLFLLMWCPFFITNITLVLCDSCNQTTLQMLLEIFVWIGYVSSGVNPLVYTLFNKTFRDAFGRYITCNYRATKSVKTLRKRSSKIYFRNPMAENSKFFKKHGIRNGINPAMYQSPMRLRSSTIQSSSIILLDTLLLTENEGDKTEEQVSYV
Procedure: (§2) All in vitro binding assay and Ki data studies were performed by the US National Institute of Mental Health Psychoactive Drug Screening Program (NIMH PDSP). For these studies, drugs were screened against recombinant, stably expressed human 5-HT2AR, 5-HT2BR, 5-HT2CR and H1, as described at https://pdspdb.unc.edu/pdspWeb/ ([Besnard et al., 2012]).

[4] = target: T1, human 5-HT2CR (Homo sapiens, UniProt P28335); assay: radioligand binding (NIMH PDSP)
T1 sequence (P28335 33-458): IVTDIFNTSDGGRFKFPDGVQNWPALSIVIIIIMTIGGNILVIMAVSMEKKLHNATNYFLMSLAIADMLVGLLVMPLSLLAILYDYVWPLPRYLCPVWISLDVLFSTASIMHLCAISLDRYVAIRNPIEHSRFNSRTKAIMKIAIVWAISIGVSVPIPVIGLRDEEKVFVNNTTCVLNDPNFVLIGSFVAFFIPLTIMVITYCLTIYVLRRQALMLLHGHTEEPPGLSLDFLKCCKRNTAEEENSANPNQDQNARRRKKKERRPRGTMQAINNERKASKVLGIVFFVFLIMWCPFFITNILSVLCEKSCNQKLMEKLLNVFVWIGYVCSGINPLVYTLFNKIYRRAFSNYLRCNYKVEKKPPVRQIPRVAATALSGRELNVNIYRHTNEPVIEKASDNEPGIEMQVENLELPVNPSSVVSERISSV
Procedure: as §2

[5] = target: human 5-HT2AR (Homo sapiens, UniProt P28223); assay: radioligand binding (NIMH PDSP)
Chain of human 5-HT2AR (P28223 whole entry): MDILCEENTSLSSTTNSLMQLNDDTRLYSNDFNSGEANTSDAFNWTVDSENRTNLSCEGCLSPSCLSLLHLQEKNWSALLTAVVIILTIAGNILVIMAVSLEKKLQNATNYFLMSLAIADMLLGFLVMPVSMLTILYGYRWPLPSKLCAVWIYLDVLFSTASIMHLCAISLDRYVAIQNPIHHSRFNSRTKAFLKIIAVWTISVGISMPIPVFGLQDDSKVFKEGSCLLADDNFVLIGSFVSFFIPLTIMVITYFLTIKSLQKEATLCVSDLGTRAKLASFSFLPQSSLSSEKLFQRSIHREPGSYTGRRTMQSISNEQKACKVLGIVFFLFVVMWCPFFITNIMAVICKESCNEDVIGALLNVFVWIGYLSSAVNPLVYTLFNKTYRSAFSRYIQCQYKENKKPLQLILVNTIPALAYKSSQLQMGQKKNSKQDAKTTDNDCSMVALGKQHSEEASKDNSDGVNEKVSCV
Procedure: as §2

[6] = target: human H1 (Homo sapiens, UniProt P35367); assay: radioligand binding (NIMH PDSP); settings: read-out: Ki H1
Chain of human H1 (P35367 whole entry): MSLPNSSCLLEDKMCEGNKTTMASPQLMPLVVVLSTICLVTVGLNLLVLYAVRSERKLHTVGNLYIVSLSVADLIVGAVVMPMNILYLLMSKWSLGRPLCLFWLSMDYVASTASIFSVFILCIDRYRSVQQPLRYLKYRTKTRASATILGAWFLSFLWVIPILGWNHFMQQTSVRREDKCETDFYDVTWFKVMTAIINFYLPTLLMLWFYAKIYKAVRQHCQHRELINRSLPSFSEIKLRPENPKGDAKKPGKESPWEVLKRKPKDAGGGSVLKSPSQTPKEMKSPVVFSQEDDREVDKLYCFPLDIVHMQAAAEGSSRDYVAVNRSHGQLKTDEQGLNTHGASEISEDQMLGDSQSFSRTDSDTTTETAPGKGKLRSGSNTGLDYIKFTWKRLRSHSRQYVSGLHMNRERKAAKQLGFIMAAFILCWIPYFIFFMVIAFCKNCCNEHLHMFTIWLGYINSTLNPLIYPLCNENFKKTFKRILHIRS
Procedure: as §2

[7] = read-out: % change in velocity, individual larva 1 (heat map)
[8] = read-out: % change in velocity, individual larva 2 (heat map)
[9] = read-out: % change in velocity, individual larva 3 (heat map)
[10] = read-out: % change in velocity, individual larva 4 (heat map)
[11] = read-out: % change in velocity, individual larva 5 (heat map)
[12] = read-out: % change in velocity, individual larva 6 (heat map)
[13] = read-out: mean velocity change from six fish, Trial 1
[14] = read-out: mean velocity change from six fish, Trial 2
[15] = recombinant, stably expressed human receptor, clemizole analogues

Structure (SMILES)	change in vivo at 100 µM [1, 7]	change in vivo at 250 µM [1, 7]	change in vivo at 100 µM [1, 8]	change in vivo at 250 µM [1, 8]	change in vivo at 100 µM [1, 9]	change in vivo at 250 µM [1, 9]	change in vivo at 100 µM [1, 10]	change in vivo at 250 µM [1, 10]	change in vivo at 100 µM [1, 11]	change in vivo at 250 µM [1, 11]	change in vivo at 100 µM [1, 12]	change in vivo at 250 µM [1, 12]	change in vivo at 100 µM [1, 13]	change in vivo at 250 µM [1, 13]	change in vivo at 100 µM [1, 14]	toxicity in initial analogue screening [2]	Ki [5, 15]	Ki [3, 15]	Ki [4, 15]	Ki [6, 15]	also measured
Clc1ccc(Cn2c(CC3CCCC3)nc3ccccc32)cc1 [Compound 1]	-100%	-100%	-100%	-60%	-100%	-100%	-100%	-100%	-100%	-100%	-100%	-100%	-100%	-96.2%	-100%	toxic	–	–	–	–	Ki [3]: 501 nM; Ki [4]: 2730 nM
O=C(c1nc2ccccc2n1Cc1ccc(Cl)cc1)N1CCCC1 [Compound 2]	-68.2%	-100%	-100%	-100%	-100%	-100%	-100%	-100%	-100%	-100%	-100%	-100%	-97.2%	-100%	-97.2%	toxic	–	–	–	–	–
c1ccc(Cn2c(CN3CCCC3)nc3ccccc32)cc1 [Compound 3]	–	–	–	–	–	–	–	–	–	–	–	–	–	–	–	–	327 nM	83 nM	292 nM	4.8 nM	–
CCCn1c(CN2CCCC2)nc2ccccc21.O=CO [Compound 5]	–	–	–	–	–	–	–	–	–	–	–	–	–	–	–	–	> 10000 nM	219 nM	> 10000 nM	362 nM	effect on seizure-like swim behaviour, initial library screen [1]: no significant effect on swim behaviour; effect on seizure-like swim behaviour, retest of independently synthesized compound [1]: no significant effect on the swim behaviour
Fc1ccc(Cn2c(CN3CCCC3)nc3ccccc32)cc1 [Compound 7]	–	–	–	–	–	–	–	–	–	–	–	–	–	–	–	–	15 nM	46 nM	345 nM	1 nM	–
Clc1ccc(Cn2ccnc2CN2CCCC2)cc1 [Compound 9]	-13.5%	-94%	-0.7%	-100%	-34.9%	-22.5%	-57.3%	-100%	34.4%	-38.8%	-33.2%	-100%	-28.1%	-73.2%	-28.1%	–	–	–	–	–	effect on seizure-like swim behaviour, initial library screen [1]: effective in suppressing; change in vivo at 250 µM [1, 14]: -100%; toxicity at 250 µM ([2]; 250 µM): toxic; Ki [5]: > 10000 nM; Ki [3]: > 10000 nM; Ki [4]: 447 nM; Ki [6]: 29 nM
Clc1ccc(Cn2c(CN3CCCC3)cc3ccccc32)cc1 [Compound 11]	39.3%	-100%	403%	-100%	91.2%	-100%	120%	-100%	149%	-100%	66.8%	-100%	124%	-100%	124%	–	–	–	–	–	Ki [5]: 631 nM; Ki [3]: 134 nM; Ki [4]: 248 nM; Ki [6]: 6.4 nM
Nc1ccc(Cn2c(CN3CCCC3)nc3ccccc32)cc1 [Compound 14]	–	–	–	–	–	–	–	–	–	–	–	–	–	–	–	–	> 10000 nM	606 nM	> 10000 nM	27 nM	effect on seizure-like swim behaviour, initial library screen [1]: no significant effect on swim behaviour; effect on seizure-like swim behaviour, retest of independently synthesized compound [1]: no significant effect on the swim behaviour
Clc1ccc(Cn2c(CN3CCCCC3)nc3ccccc32)cc1 [Compound 22]	–	–	–	–	–	–	–	–	–	–	–	–	–	–	–	toxic	623 nM	306 nM	4580 nM	8.5 nM	–
